Test results taken from PubChem BioAssay (NCI).
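These data come from cells grown in 96-well plates and exposed to compound for 48 hours at five concentrations. GI50 = concentration required for 50% inhibition of growth. TGI is the concentration that stops growth completely.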

What was measured:
Experiment in all cases: inhibition of tumour cell growth, NCI panel, 48 h
HT29 colon = test system: HT29 colon
HOP-62 NSCLC = test system: HOP-62 NSCLC
A498 renal = test system: A498 renal
TK-10 renal = test system: TK-10 renal
MCF7 breast = test system: MCF7 breast
CAKI-1 renal = test system: CAKI-1 renal
MDA-MB-231 breast = test system: MDA-MB-231 breast
NCI-H226 lung = test system: NCI-H226 lung
UO-31 renal = test system: UO-31 renal
NCI-H460 lung = test system: NCI-H460 lung
UACC-257 melanoma = test system: UACC-257 melanoma
RPMI-8226 leukemia = test system: RPMI-8226 leukemia
OVCAR-8 ovarian = test system: OVCAR-8 ovarian
IGROV1 ovarian = test system: IGROV1 ovarian
NCI-H522 lung = test system: NCI-H522 lung
UACC-62 melanoma = test system: UACC-62 melanoma
MDA-MB-435 = test system: MDA-MB-435
CCRF-CEM leukemia = test system: CCRF-CEM leukemia
LOX IMVI melanoma = test system: LOX IMVI melanoma
HOP-92 NSCLC = test system: HOP-92 NSCLC
NCI-H23 lung = test system: NCI-H23 lung
HL-60(TB) leukemia = test system: HL-60(TB) leukemia
PC-3 prostate = test system: PC-3 prostate
EKVX NSCLC = test system: EKVX NSCLC
SR leukemia = test system: SR leukemia
COLO 205 colon = test system: COLO 205 colon
HCT-116 colon = test system: HCT-116 colon
KM12 colon = test system: KM12 colon
OVCAR-5 ovarian = test system: OVCAR-5 ovarian
SW-620 colon = test system: SW-620 colon
M14 melanoma = test system: M14 melanoma
NCI/ADR-RES ovarian = test system: NCI/ADR-RES ovarian
K-562 leukemia = test system: K-562 leukemia
BT-549 breast = test system: BT-549 breast
DU-145 prostate = test system: DU-145 prostate
OVCAR-4 ovarian = test system: OVCAR-4 ovarian
HCC-2998 colon = test system: HCC-2998 colon
SF-268 CNS = test system: SF-268 CNS
ACHN renal = test system: ACHN renal
SK-OV-3 ovarian = test system: SK-OV-3 ovarian
SF-295 CNS = test system: SF-295 CNS
SK-MEL-5 melanoma = test system: SK-MEL-5 melanoma
786-0 renal = test system: 786-0 renal
RXF 393 renal = test system: RXF 393 renal
SF-539 CNS = test system: SF-539 CNS
A549 NSCLC = test system: A549 NSCLC
U251 CNS = test system: U251 CNS
SNB-19 CNS = test system: SNB-19 CNS
HCT-15 colon = test system: HCT-15 colon
SK-MEL-2 melanoma = test system: SK-MEL-2 melanoma
SNB-75 CNS = test system: SNB-75 CNS
MOLT-4 leukemia = test system: MOLT-4 leukemia
SN12C renal = test system: SN12C renal
SK-MEL-28 melanoma = test system: SK-MEL-28 melanoma
HS 578T breast = test system: HS 578T breast

Question: What does the source list for `CCN1C(=O)N(CC)C2SC(N/N=C/c3ccc(OC)cc3)=NC21` (stereo not given)?
Answer: GI50 (HT29 colon): 322 nM; TGI (HT29 colon): 1280 nM; GI50 (HOP-62 NSCLC): 433 nM; TGI (HOP-62 NSCLC): > 100000 nM; GI50 (A498 renal): 217 nM; TGI (A498 renal): 685 nM; GI50 (TK-10 renal): > 100000 nM; TGI (TK-10 renal): > 100000 nM; GI50 (MCF7 breast): 381 nM; TGI (MCF7 breast): > 100000 nM; GI50 (CAKI-1 renal): 425 nM; TGI (CAKI-1 renal): > 100000 nM; GI50 (MDA-MB-231 breast): 868 nM; TGI (MDA-MB-231 breast): > 100000 nM; GI50 (NCI-H226 lung): 438 nM; TGI (NCI-H226 lung): > 72000 nM; GI50 (UO-31 renal): 686 nM; TGI (UO-31 renal): > 100000 nM; GI50 (NCI-H460 lung): 357 nM; TGI (NCI-H460 lung): > 100000 nM; GI50 (UACC-257 melanoma): 2320 nM; TGI (UACC-257 melanoma): > 100000 nM; GI50 (RPMI-8226 leukemia): 423 nM; TGI (RPMI-8226 leukemia): > 100000 nM; GI50 (OVCAR-8 ovarian): 428 nM; TGI (OVCAR-8 ovarian): 6610 nM; GI50 (IGROV1 ovarian): 648 nM; TGI (IGROV1 ovarian): > 100000 nM; GI50 (NCI-H522 lung): 235 nM; TGI (NCI-H522 lung): 760 nM; GI50 (UACC-62 melanoma): 390 nM; TGI (UACC-62 melanoma): > 100000 nM; GI50 (MDA-MB-435): 205 nM; TGI (MDA-MB-435): 522 nM; GI50 (CCRF-CEM leukemia): 334 nM; TGI (CCRF-CEM leukemia): > 100000 nM; GI50 (LOX IMVI melanoma): 564 nM; TGI (LOX IMVI melanoma): > 100000 nM; GI50 (HOP-92 NSCLC): 283 nM; TGI (HOP-92 NSCLC): 4660 nM; GI50 (NCI-H23 lung): 570 nM; TGI (NCI-H23 lung): > 100000 nM; GI50 (HL-60(TB) leukemia): 281 nM; TGI (HL-60(TB) leukemia): 9060 nM; GI50 (PC-3 prostate): 449 nM; TGI (PC-3 prostate): > 100000 nM; GI50 (EKVX NSCLC): 704 nM; TGI (EKVX NSCLC): > 100000 nM; GI50 (SR leukemia): 308 nM; TGI (SR leukemia): > 100000 nM; GI50 (COLO 205 colon): 273 nM; TGI (COLO 205 colon): 751 nM; GI50 (HCT-116 colon): 394 nM; TGI (HCT-116 colon): > 40300 nM; GI50 (KM12 colon): 457 nM; TGI (KM12 colon): > 100000 nM; GI50 (OVCAR-5 ovarian): 917 nM; TGI (OVCAR-5 ovarian): > 100000 nM; GI50 (SW-620 colon): 380 nM; TGI (SW-620 colon): > 100000 nM; GI50 (M14 melanoma): 322 nM; TGI (M14 melanoma): 34200 nM; GI50 (NCI/ADR-RES ovarian): 395 nM; TGI (NCI/ADR-RES ovarian): > 100000 nM; GI50 (K-562 leukemia): 350 nM; TGI (K-562 leukemia): > 100000 nM; GI50 (BT-549 breast): 322 nM; TGI (BT-549 breast): 1320 nM; GI50 (DU-145 prostate): 478 nM; TGI (DU-145 prostate): > 100000 nM; GI50 (OVCAR-4 ovarian): > 100000 nM; TGI (OVCAR-4 ovarian): > 100000 nM; GI50 (HCC-2998 colon): 795 nM; TGI (HCC-2998 colon): > 100000 nM; GI50 (SF-268 CNS): 2510 nM; TGI (SF-268 CNS): > 100000 nM; GI50 (ACHN renal): 811 nM; TGI (ACHN renal): > 100000 nM; GI50 (SK-OV-3 ovarian): 453 nM; TGI (SK-OV-3 ovarian): > 100000 nM; GI50 (SF-295 CNS): 317 nM; TGI (SF-295 CNS): > 83800 nM; GI50 (SK-MEL-5 melanoma): 462 nM; TGI (SK-MEL-5 melanoma): 3010 nM; GI50 (786-0 renal): 849 nM; TGI (786-0 renal): 51700 nM; GI50 (RXF 393 renal): 282 nM; TGI (RXF 393 renal): > 100000 nM; GI50 (SF-539 CNS): 269 nM; TGI (SF-539 CNS): 857 nM; GI50 (A549 NSCLC): 666 nM; TGI (A549 NSCLC): > 100000 nM; GI50 (U251 CNS): 365 nM; TGI (U251 CNS): > 100000 nM; GI50 (SNB-19 CNS): 464 nM; TGI (SNB-19 CNS): > 100000 nM; GI50 (HCT-15 colon): 404 nM; TGI (HCT-15 colon): > 100000 nM; GI50 (SK-MEL-2 melanoma): 504 nM; TGI (SK-MEL-2 melanoma): > 100000 nM; GI50 (SNB-75 CNS): 321 nM; TGI (SNB-75 CNS): > 100000 nM; GI50 (MOLT-4 leukemia): 589 nM; TGI (MOLT-4 leukemia): > 100000 nM; GI50 (SN12C renal): 594 nM; TGI (SN12C renal): > 100000 nM; GI50 (SK-MEL-28 melanoma): > 100000 nM; TGI (SK-MEL-28 melanoma): > 100000 nM; GI50 (HS 578T breast): 305 nM; TGI (HS 578T breast): > 100000 nM
